In the NIST ThermoML archive (doi:10.1016/j.jct.2016.02.026):
± gives the expanded uncertainty stated by the source. One block for each compound: values may come before it.

Legend:
[1] = Liquid; for mass density: 303.15 K, 91.2 kPa, Vibrating tube method; for vapor or sublimation pressure: Ebulliometric method (Recirculating still)
[2] = wn = mass fraction of the nth substance listed; conditions: 303.15 K, 91.2 kPa, Liquid, Vibrating tube method

mass density [1]: 781 ± 2 kg/m3
SMILES: CCO [ethanol]

mass density ([2]; w2 = 0): 781 ± 2 kg/m3
SMILES: CCO [ethanol] + OCC(O)CO

mass density ([2]; w2 = 0): 781 ± 2 kg/m3
SMILES: CCO [ethanol] + [Cl-].[Na+]

mass density [1]: 1255 ± 3 kg/m3
SMILES: OCC(O)CO [glycerol]

mass density ([2]; w1 = 0.1529): 835 ± 2 kg/m3 | mass density ([2]; w1 = 0.2901): 888 ± 2 kg/m3 | mass density ([2]; w1 = 0.4124): 939 ± 2 kg/m3 | mass density ([2]; w1 = 0.5159): 985 ± 2 kg/m3 | mass density ([2]; w1 = 0.6211): 1036 ± 2 kg/m3 | mass density ([2]; w1 = 0.7096): 1084 ± 2 kg/m3 | mass density ([2]; w1 = 0.7971): 1136 ± 2 kg/m3 | mass density ([2]; w1 = 0.869): 1174 ± 3 kg/m3 | mass density ([2]; w1 = 0.9357): 1215 ± 3 kg/m3 | mass density ([2]; w1 = 1): 1255 ± 3 kg/m3
SMILES: OCC(O)CO [glycerol] + CCO

mass density ([2]; w1 = 0.1159): 1022 ± 2 kg/m3 | mass density ([2]; w1 = 0.2056): 1044 ± 2 kg/m3 | mass density ([2]; w1 = 0.3521): 1080 ± 2 kg/m3 | mass density ([2]; w1 = 0.4646): 1108 ± 2 kg/m3 | mass density ([2]; w1 = 0.5524): 1133 ± 2 kg/m3 | mass density ([2]; w1 = 1): 1255 ± 3 kg/m3
SMILES: OCC(O)CO [glycerol] + O

More lines, now with the values behind:

SMILES: [Cl-].[K+] [potassium chloride] + O
mass density ([2]; w1 = 0.0344): 1017 ± 2 kg/m3 | mass density ([2]; w1 = 0.053): 1029 ± 2 kg/m3 | mass density ([2]; w1 = 0.067): 1038 ± 2 kg/m3 | mass density ([2]; w1 = 0.0975): 1058 ± 2 kg/m3 | mass density ([2]; w1 = 0.1259): 1077 ± 2 kg/m3 | mass density ([2]; w1 = 0.1526): 1095 ± 2 kg/m3 | mass density ([2]; w1 = 0.1779): 1113 ± 2 kg/m3 | mass density ([2]; w1 = 0.2009): 1129 ± 2 kg/m3 | mass density ([2]; w1 = 0.2117): 1137 ± 3 kg/m3 | mass density ([2]; w1 = 0.2156): 1140 ± 2 kg/m3 | mass density ([2]; w1 = 0.2448): 1161 ± 3 kg/m3 | mass density ([2]; w1 = 0.2645): 1176 ± 3 kg/m3

SMILES: [Cl-].[Na+] [sodium chloride] + CCO
mass density ([2]; w1 = 0.00041): 788 ± 2 kg/m3

SMILES: [Cl-].[Na+] [sodium chloride] + O
mass density ([2]; w1 = 0.0318): 1018 ± 2 kg/m3 | mass density ([2]; w1 = 0.0654): 1042 ± 2 kg/m3 | mass density ([2]; w1 = 0.067): 1043 ± 2 kg/m3 | mass density ([2]; w1 = 0.0949): 1063 ± 2 kg/m3 | mass density ([2]; w1 = 0.0974): 1065 ± 2 kg/m3 | mass density ([2]; w1 = 0.1232): 1084 ± 2 kg/m3 | mass density ([2]; w1 = 0.1259): 1086 ± 2 kg/m3 | mass density ([2]; w1 = 0.1578): 1110 ± 2 kg/m3 | mass density ([2]; w1 = 0.1772): 1125 ± 2 kg/m3 | mass density ([2]; w1 = 0.2013): 1144 ± 3 kg/m3 | mass density ([2]; w1 = 0.225): 1163 ± 3 kg/m3 | mass density ([2]; w1 = 0.244): 1178 ± 3 kg/m3 | mass density ([2]; w1 = 0.2672): 1195 ± 3 kg/m3

SMILES: O [water]
mass density [1]: 996 ± 2 kg/m3 | vapor or sublimation pressure ([1]; 327.65 K): 15.32 ± 0.9 kPa | vapor or sublimation pressure ([1]; 337.15 K): 23.61 ± 0.97 kPa | vapor or sublimation pressure ([1]; 341.35 K): 28.46 ± 1.4 kPa | vapor or sublimation pressure ([1]; 344.45 K): 33.81 ± 1.5 kPa | vapor or sublimation pressure ([1]; 348.05 K): 38.36 ± 1.5 kPa | vapor or sublimation pressure ([1]; 351.55 K): 44.42 ± 1.9 kPa | vapor or sublimation pressure ([1]; 355.75 K): 52.9 ± 1.9 kPa | vapor or sublimation pressure ([1]; 358.05 K): 56.84 ± 2.4 kPa | vapor or sublimation pressure ([1]; 361.85 K): 67.25 ± 2.7 kPa | vapor or sublimation pressure ([1]; 365.65 K): 77.55 ± 3 kPa | vapor or sublimation pressure ([1]; 370.05 K): 91.59 ± 3.2 kPa

SMILES: O [water] + OCC(O)CO
mass density ([2]; w2 = 0): 996 ± 2 kg/m3

SMILES: O [water] + [Cl-].[K+]
mass density ([2]; w2 = 0): 996 ± 2 kg/m3

SMILES: O [water] + [Cl-].[Na+]
mass density ([2]; w2 = 0): 996 ± 2 kg/m3
